Results from US12011459B2, “Methods for manufacturing T cells by direct sorting and compositions thereof” (Immatics US, Inc., priority 2019, dated 2024).
Values joined by “and” are separate entries in the source; they are usually repeats but may differ in a detail not shown here. Equal values may be shown once.

Experiments:
PBMC = experiment: Col6A3-002 2D tetramer staining of PBMC with dasatinib treatment, flow cytometry; type: cell-based, human; conditions: for 2D PE/BV421 Tet-positive and irrelevant peptide APC tetramer-negative events: 4° C.
Protocol: To compare the effects of PKI and temperatures on pMHC multimer staining, healthy donor peripheral blood mononuclear cells (PBMCs) were pretreated with 50 nM Dasatinib (FIG. 21A) or untreated (FIG. 21B) and then stained with two Col6A3-002 peptide (FLLDGSANV (SEQ ID NO: 141)) (Col) tetramers (2Dtet) conjugated to streptavidin BV421 and PE, and five different irrelevant APC tetramers (peptide 1, peptide 2, peptide 3, peptide 4, and peptide 5) at either 37° C. (FIG. 21A) or room-temperature (RT) (FIG. 21B) for 30 minutes. Following tetramer staining, samples were counterstained with tetramer stabilizing antibodies staining against PE and APC at 4° C., followed by staining with anti-CD45 PE-Cy7 antibody at 4° C.
To determine which staining conditions that may provide lowest background and lowest false positive rate, PBMC were stained with or without PKI treatment, e.g., dasatinib (DAS), with or without irrelevant peptide tetramer mix at different tetramer staining temperatures (Hadrup et al., Nat. Methods, 2009, 6:520-526; the content of which is hereby incorporated by reference in its entirety). For example, PBMC cells were stained with 2D Tet (PE+BV421) in the presence or in the absence of irrelevant peptide tetramer mix, e.g., five different irrelevant peptides (e.g., Col6A3-015 (YLMDDFSSL (SEQ ID NO: 16)), MAG-003 (KVLEHVVRV (SEQ ID NO: 118)), MAGEC2-001 (TLDEKVAEL (SEQ ID NO: 161)), MXRA5-003 (LLWGHPRVALA (SEQ ID NO: 18), and MAGEA1-003 (KVLEYVIKV (SEQ ID NO: 105)) APC tetramers±DAS treatment, at 37° C. or at room temperature (RT). DAS treatments were performed at 37° C.
To investigate PBMC staining under conditions D and G, PBMC (12.5×10^6 cells/ml) obtained from 4 donors were stained±DAS treatment (50 nM, at 37° C.), Col6A3-002 BV421 tetramer (3 μg/ml) and Col6A3-002 PE Tetramer (2.5 μg/ml), fluorochrome-labeled anti-CD45 antibody, e.g., PE-Cy7 mouse anti-human CD45 (BD Biosciences), Col6A3-002 BV421 tetramer (3 μg/ml), and APC irrelevant peptides (n=5, e.g., Col6A3-015 (YLMDDFSSL (SEQ ID NO: 16)), MAG-003 (KVLEHWRV (SEQ ID NO: 118)), MAGEC2-001 (TLDEKVAEL (SEQ ID NO: 161)), MXRA5-003 (LLWGHPRVALA (SEQ ID NO: 18), and MAGEA1-003 (KVLEYVIKV (SEQ ID NO: 105)) tetramer mix (3 μg/ml) with all staining, spins, and washes at 4° C.
The experiments shown in FIGS. 37A-37D were repeated using a different fluorochrome-labeled anti-CD45 antibody, e.g., PE-Cy™7 mouse anti-human CD45 (BD Biosciences). PBMC (10×10^6 cells/nil) obtained from 4 donors were stained with or without DAS treatment (50 nM, at 37° C.), BV421 (3 μg/ml), Col6A3-002 2D Tet (PE+BV421) (2.5 μg/ml), PerCP-Cy™5.5 mouse anti-human CD45 (BD Biosciences), Col6A3-002 BV421 tetramer (3 μg/ml), and APC (n=5) irrelevant tetramer mix (3 μg/ml) with all staining, spins, and washes at 4° C.

[1] = system: Col6A3 REP1 cells (αCol6A3 T cells); experiment: Col6A3-002 2D tetramer staining of Col6A3 REP1 cells with dasatinib treatment, flow cytometry; type: cell-based; conditions: for background staining of BV421/APC double-positive irrelevant peptide T cells (Q2): bench and centrifugation at 4° C.
Protocol: To determine which staining conditions that may provide higher staining index (SI), indicating better separation of cells stained positive from cells stained negative, and lower false negative rate, Col6A3 REP1 cells, which were prepared by rapid expansion protocol (REP), were stained±DAS treatment (at 37° C.), ±irrelevant peptide tetramer mix, and staining at RT or 37° C.
Staining index (SI) may be calculated by using formula (I): SI=(mean PE+mean BV421 2Dtet+)−(mean PE+mean BV421 2Dtet−)/2×(SD PE+SD BV421 2Dtet−). […] (P=0.316695), and ±irrelevant peptide tetramer mix (P=0.597223).
The estimation per 1×10^6 based on flow %, which indicates numbers of peptide-specific T cells per 1×10^6 of CD45+ cells, may be calculated by the formula: (2Dtet+%×1×10^6/100)−((2Dtet+%×1×10^6/100)×irrelevant peptide tetramer mix+%/100)). Table 14 summarizes the estimations under the staining conditions A-G. DAS treatment was performed at 37° C. for 30 minutes.

[2] = system: αCol6A3 T cells spiked in PBMC (1:1×10^5); experiment: Col6A3-002 2D tetramer staining of αCol6A3 T cells spiked in PBMC, condition #1; type: cell-based; conditions: staining at 37° C.
Protocol: Condition #1: with DAS treatment+irrelevant peptide tetramer mix, staining at 37° C.
Sample #2: αCol6A3 T cells spiked in PBMC (1:1×10^5), about 2×10^6 CD45+cells acquired

[3] = system: Col6A3 REP1 cells (αCol6A3 T cells); experiment: Col6A3-002 2D tetramer staining of Col6A3 REP1 cells with dasatinib treatment, flow cytometry; type: cell-based; conditions: Col6A3 PEP1 cells
[4] = PBMC, DAS treatment, staining at RT, with irrelevant peptide APC tetramer mix
[5] = DAS treatment, staining at 37° C., with irrelevant peptide APC tetramer mix, listed as DAS
[6] = DAS treatment, staining at RT, with irrelevant peptide APC tetramer mix
[7] = DAS treatment + irrelevant peptide tetramer mix

In the case of `Cc1nc(Nc2ncc(C(=O)Nc3c(C)cccc3Cl)s2)cc(N2CCN(CCO)CC2)n1` [Dasatinib, dasatinib], the “2D PE/BV421 Tet-positive and irrelevant peptide APC tetramer-negative events” value (PBMC; PBMC sample S1, in 1.29×10^7 lymphocytes acquired, DAS) is reported as 128 events, the “2D PE/BV421 Tet-positive and irrelevant peptide APC tetramer-negative events” value (PBMC; PBMC sample S2, in 6.09×10^6 lymphocytes acquired, DAS) is reported as 68 events and the “2D PE/BV421 Tet-positive and irrelevant peptide APC tetramer-negative events” value (PBMC; PBMC sample S3, in 9.71×10^5 lymphocytes acquired, DAS) is reported as 23 events. The “2D PE/BV421 Tet-positive and irrelevant peptide APC tetramer-negative events” value (PBMC; PBMC sample S4, in 5.35×10^6 lymphocytes acquired, DAS) was 80 events, the “2D Tet (PE+BV421) double-positive cells (Q2) of CD45+ cells” value (“2D Tet (PE+BV421) double-positive cells” for short) (PBMC; PBMC, 50 nM dasatinib treatment, Tet staining at 37° C., with irrelevant peptide APC tetramer mix) was 0.027% and the “2D Tet (PE+BV421) double-positive cells” value (PBMC; PBMC, DAS 50 nM at 37° C., all staining, spins, washes at 4° C., with irrelevant mix, FIG. 37A) was 4.23E-3%. For the same molecule, the “2D Tet (PE+BV421)-positive and irrelevant peptide-negative cells in Q2 cells” value (PBMC; PBMC, DAS 50 nM, all staining, spins, washes at 4° C., FIG. 37A) was 46.5%, the “2D Tet (PE+BV421) double-positive cells” value (PBMC; PBMC, DAS treatment, staining at 37° C., absence of irrelevant peptide APC tetramer mix) was 0.19% and the “APC-negative/BV421-positive cells (true Col6A3-specific T cells, Q1) in Q2 cells” value (PBMC; PBMC, DAS treatment, staining at 37° C., with irrelevant peptide APC tetramer mix) was 0.93%. The “irrelevant peptide positive T cells in the BV421/PE double-positive (Q2) cells” value (PBMC; PBMC, DAS treatment, staining at 37° C., with irrelevant peptide APC tetramer mix, listed as DAS) was 98.2% and 99.1%, the “2D Tet (PE+BV421) double-positive cells” value (PBMC; PBMC, DAS treatment, staining at RT, absence of irrelevant peptide APC tetramer mix) was 7.17E-3% and the “2D Tet (PE+BV421) double-positive cells” value (PBMC; [4]) was 8.04E-3%. For the same molecule, the “APC-negative/BV421-positive cells (true Col6A3-specific T cells, Q1) in Q2 cells” value (PBMC; [4]) was “about 4.76%”, the “irrelevant peptide positive T cells in the BV421/PE double-positive (Q2) cells” value (PBMC; [4]) was 95.2% and the “final frequency: one Col Tet+ T cell in N CD45+ cells” value (PBMC; PBMC, dasatinib treatment, staining at 37° C., with irrelevant APC tetramers) was 4×10^5 CD45+ cells. For the same molecule, the “2D PE/BV421 Tet-positive and irrelevant peptide APC tetramer-negative events” value (PBMC; PBMC, in 4.78×10^6 lymphocytes acquired, DAS) was 94 events, the “increase of MFI” value (PBMC; in ¼ of DAS-treated samples) was “about 2 ×” and the “2D PE/BV421 Tet-positive and irrelevant peptide APC tetramer-negative cells detected” value (PBMC; only PBMC, in 2×10^6 CD45+ cells acquired, DAS, staining at 37° C.) was 5 cells. The “irrelevant peptide positive T cells in Q2 cells” value [1, 5] was 6.38% and 3.18%, the “staining index (SI)” value [1, 5] was 19.0 and 15.6 and the “2D Tet (PE+BV421) double-positive cells” value [1, 6] was 55.8%. The “APC-negative/BV421-positive cells (true Col6A3 REP1 cells, Q1) in Q2 cells” value [1, 6] was “about 78.4%”, the “irrelevant peptide positive T cells in Q2 cells” value [1, 6] was 21.6% and the “staining index (SI)” value [1, 6] was 24.0. For the same molecule, the “Estimation per 1e6 based on flow % (peptide-specific T cells per 1×10^6 CD45+ cells)” value (“Estimation per 1e6 based on flow %” below) ([1]; condition A: Dasatinib +, Tet stain 37, bench RT, centrifuge RT) was 2.24 × 10^5 per 1e6, the “background staining of BV421/APC double-positive irrelevant peptide T cells (Q2)” value ([1]; condition C: DAS, Tet staining at 37° C.) was 2.01% and the “Estimation per 1e6 based on flow %” value ([1]; condition C: Dasatinib +, Tet stain 37, bench 4, centrifuge 4) was 5.61 × 10^5 per 1e6. The “background staining of BV421/APC double-positive irrelevant peptide T cells (Q2)” value ([1]; condition D: DAS, Tet staining) was 13.7%, the “Estimation per 1e6 based on flow %” value ([1]; condition D: Dasatinib +, Tet stain 4, bench 4, centrifuge 4) was 6.75 × 10^5 per 1e6 and the “background staining of BV421/APC double-positive irrelevant peptide T cells (Q2)” value ([1]; condition F: DAS, Tet staining at RT) was 3.07%. The “Estimation per 1e6 based on flow %” value ([1]; condition F: Dasatinib +, Tet stain RT, bench 4, centrifuge 4) was 6.75 × 10^5 per 1e6, the “2D PE/BV421 Tet double-positive cells (Q2) of CD45+ cells” value [2, 7] was 0.035% and the “APC-negative/BV421-positive cells (true αCol6A3 T cells, Q1) in Q2 cells” value [2, 7] was “about 2.58%”. The “BV421/APC double-positive irrelevant peptide T cells in Q2 cells” value [2, 7] was 97.4%, the “one αCol6A3 T cell in N CD45+ cells” value [2, 7] was 1×10^5 CD45+ cells and the “2D PE/BV421 Tet-positive and irrelevant peptide APC tetramer-negative events” value ([2]; in 2×10^6 CD45+ cells acquired, DAS) was 18 events. The “2D Tet (PE+BV421)-positive and irrelevant peptide-negative cells in Q2 cells” value ([3]; DAS treatment, 4° C., FIG. 39) was 95.8%, the “2D Tet (PE+BV421) double-positive cells” value ([3]; DAS treatment, all staining, spins, washes at 4° C., FIG. 39) was 68.9% and the “2D PE/BV421 Tet-positive and irrelevant peptide APC tetramer-negative events” value ([3]; in 206055 lymphocytes acquired, DAS, 4° C.) was 135941 events.
